Test results as given in the supplement of paper PMC7287046.

Assays:
Conditions in all cases: exposure time: 72 h
AM-38 [1] = assay: HSA synergy score (Combenefit); higher = more synergy
Procedure: (§1)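 The same 6x6 dose matrices of drug pairs on glioma cell lines (72 h, CellTiter-Glo viability normalised to DMSO, triplicate) were scored with Combenefit. The Loewe, Bliss and HSA synergy scores are given; paper thresholds are Loewe 7.8 and Bliss 2.5.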

KNS-42 [2] = assay: as above
Procedure: as §1

SF268 [3] = assay: as above
Procedure: as §1

SF539 [4] = assay: as above
Procedure: as §1

SNB75 [5] = assay: as above
Procedure: as §1

T98G [6] = assay: as above
Procedure: as §1

U118 [7] = assay: as above
Procedure: as §1

U251 [8] = assay: as above
Procedure: as §1

U87 [9] = assay: as above
Procedure: as §1

AM38 = assay: Chou-Talalay combination index (dimensionless); higher = less synergy (more antagonism)
Procedure: (§2)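 Glioma cell lines were treated for 72 h with a 6x6 matrix of two drugs, each in twofold dilutions with the top dose at the single-drug IC50. Viability was read by CellTiter-Glo and normalised to DMSO controls, in triplicate. The Chou-Talalay combination index was computed by the median effect principle; CI < 0.8 means synergy.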

KNS42 = assay: as above
Procedure: as §2

SF268 [10] = assay: as above
Procedure: as §2

SF539 [11] = assay: as above
Procedure: as §2

SNB75 [12] = assay: as above
Procedure: as §2

T98 = assay: as above
Procedure: as §2

U118 [13] = assay: as above
Procedure: as §2

U251 [14] = assay: as above
Procedure: as §2

U87 [15] = assay: as above
Procedure: as §2

AM-38 [16] = assay: Bliss synergy score (Combenefit); higher = more synergy; extreme values may be limits of the assay
Procedure: as §1

KNS-42 [17] = assay: as above
Procedure: as §1

SF268 [18] = assay: as above
Procedure: as §1

SF539 [19] = assay: as above
Procedure: as §1

SNB75 [20] = assay: as above
Procedure: as §1

T98G [21] = assay: as above
Procedure: as §1

U118 [22] = assay: as above
Procedure: as §1

U251 [23] = assay: as above
Procedure: as §1

U87 [24] = assay: as above
Procedure: as §1

AM-38 [25] = assay: Loewe synergy score (Combenefit); higher = more synergy; extreme values may be limits of the assay
Procedure: as §1

KNS-42 [26] = assay: as above
Procedure: as §1

SF268 [27] = assay: as above
Procedure: as §1

SF539 [28] = assay: as above
Procedure: as §1

SNB75 [29] = assay: as above
Procedure: as §1

T98G [30] = assay: as above
Procedure: as §1

U118 [31] = assay: as above
Procedure: as §1

U251 [32] = assay: as above
Procedure: as §1

U87 [33] = assay: as above
Procedure: as §1

Compound | HSA synergy score (AM-38 [1]) | HSA synergy score (KNS-42 [2]) | HSA synergy score (SF268 [3]) | HSA synergy score (SF539 [4]) | HSA synergy score (SNB75 [5]) | HSA synergy score (T98G [6]) | HSA synergy score (U118 [7]) | HSA synergy score (U251 [8]) | HSA synergy score (U87 [9]) | Chou-Talalay combination index (AM38) | Chou-Talalay combination index (KNS42) | Chou-Talalay combination index (SF268 [10]) | Chou-Talalay combination index (SF539 [11]) | Chou-Talalay combination index (SNB75 [12]) | Chou-Talalay combination index (T98) | Chou-Talalay combination index (U118 [13]) | Chou-Talalay combination index (U251 [14]) | Chou-Talalay combination index (U87 [15]) | Bliss synergy score (AM-38 [16]) | Bliss synergy score (KNS-42 [17]) | Bliss synergy score (SF268 [18]) | Bliss synergy score (SF539 [19]) | Bliss synergy score (SNB75 [20]) | Bliss synergy score (T98G [21]) | Bliss synergy score (U118 [22]) | Bliss synergy score (U251 [23]) | Bliss synergy score (U87 [24]) | Loewe synergy score (AM-38 [25]) | Loewe synergy score (KNS-42 [26]) | Loewe synergy score (SF268 [27]) | Loewe synergy score (SF539 [28]) | Loewe synergy score (SNB75 [29]) | Loewe synergy score (T98G [30]) | Loewe synergy score (U118 [31]) | Loewe synergy score (U251 [32]) | Loewe synergy score (U87 [33])
CCC(=O)N1CCN(c2ccc(-n3c(=O)ccc4cnc5ccc(-c6cnc7ccccc7c6)cc5c43)cc2C(F)(F)F)CC1 [Torin1] + O=c1[nH]c2ccccc2n1C1CCN(Cc2ccc(-c3[nH]c4cc5ncnc5cc4nc3-c3ccccc3)cc2)CC1 [Akt inhibitor VIII] | 14.7 | 16.1 | 13.5 | 10.4 | 3.56 | 9.39 | 17.9 | 1.85 | 6.03 | 0.83 | 0.852 | 0.85 | 0.778 | 0.591 | 0.645 | 0.769 | 0.878 | 0.797 | 0.504 | 6.55 | 0.944 | 3.46 | 0.0946 | 4.49 | 5.39 | 1.02 | 5.43 | 7.92 | 11.3 | 5.18 | 9.28 | 0.719 | 2.94 | 9.44 | 0.27 | 0.347
C[C@@H](Oc1cc(-c2cnn(C3CCNCC3)c2)cnc1N)c1c(Cl)ccc(F)c1Cl [Crizotinib] + Cc1cc([C@@H](C)Nc2ccccc2C(=O)O)c2nc(N3CCOCC3)cc(=O)n2c1 [AZD6482] | 11.9 | 4.57 | 6.69 | 10.7 | 9.49 | 4.32 | 3.87 | 16.2 | 5.48 | 0.52 | 0.887 | 0.786 | 0.842 | 0.802 | 0.543 | 0.844 | 0.567 | 0.652 | 4.62 | 3.3 | 0.801 | 0.821 | 0.559 | 4.32 | 0.491 | 12.8 | 5.48 | 3.58 | 3.35 | 3.44 | 2.57 | 3.14 | 4.32 | 3.69 | 16.2 | 5.48
CCC(=O)N1CCN(c2ccc(-n3c(=O)ccc4cnc5ccc(-c6cnc7ccccc7c6)cc5c43)cc2C(F)(F)F)CC1 [Torin1] + CCCCCCCCCCCC1=C(O)C(=O)C=C(O)C1=O [Embelin] | 2.04 | 5.07 | 2.48 | 2.69 | 7.31 | 0 | 2.41 | 6.4 | 3.43 | 0.856 | 0.865 | 0.864 | 0.855 | 0.841 | 0.173 | 0.917 | 0.874 | 0.673 | 0.037 | 0.0808 | 0.248 | 0.761 | 1.77 | 0 | 1.08 | 2.83 | 2.62 | 1.83 | 3.32 | 1.92 | 1.98 | 1.4 | 0 | 1.87 | 5.87 | 0.761
C#Cc1cccc(Nc2ncnc3cc(OCCOC)c(OCCOC)cc23)c1 [Erlotinib] + N#CC(c1ccnc(NCCc2cccnc2)n1)c1nc2ccccc2s1 [AS601245] | 0 | 2.81 | 2.63 | 2.83 | 1.2 | 3.77 | 3.12 | 3.14 | 0 | 1.25 | 0.914 | 0.948 | 1.01 | 1.07 | 0.621 | 1.02 | 0.946 | 3 | 0 | 0.447 | 0.0526 | 0.186 | 0 | 0.855 | 0 | 0 | 0 | 0 | 1.56 | 0.12 | 0.448 | 0.0161 | 3.11 | 2.58 | 2.04 | 0
Nc1ccn([C@@H]2O[C@H](CO)[C@@H](O)C2(F)F)c(=O)n1 [Gemcitabine] + CCOc1nc(NC(=O)Cc2cc(OC)ccc2OC)cc(N)c1C#N [JNK inhibitor VIII] | 0 | 0.883 | 0.909 | 2.34 | 5.13 | 0.133 | 0.0469 | 0 | 22.2 | 1.14 | 0.946 | 1.03 | 0.933 | 0.913 | 0.958 | 1.03 | 1.16 | 0.631 | 0 | 0.163 | 0.306 | 0.139 | 0.369 | 0.133 | 0 | 0 | 5.17 | 0 | 0.883 | 0.121 | 0.162 | 2.33 | 0.133 | 0.043 | 0 | 22.2
CO[C@H]1C[C@@H]2CC[C@@H](C)[C@@](O)(O2)C(=O)C(=O)N2CCCC[C@H]2C(=O)O[C@H]([C@H](C)C[C@@H]2CC[C@@H](O)[C@H](OC)C2)CC(=O)[C@H](C)/C=C(\C)[C@@H](O)[C@@H](OC)C(=O)[C@H](C)C[C@H](C)/C=C/C=C/C=C/1C [Rapamycin] + Cc1cc([C@@H](C)Nc2ccccc2C(=O)O)c2nc(N3CCOCC3)cc(=O)n2c1 [AZD6482] | 12.4 | 2.6 | 3.85 | 6.85 | 25.2 | 14.4 | 3.28 | 1.43 | 0 | 0.643 | 0.912 | 1.02 | 1.05 | 0.75 | 0.924 | 1.16 | 0.927 | 0.974 | 1.1 | 1.42 | 0.00824 | 0 | 3.78 | 0.59 | 0 | 1.43 | 0 | 9.55 | 2.6 | 3.35 | 5.95 | 21.8 | 12 | 2.56 | 1.43 | 0
CCC(=O)N1CCN(c2ccc(-n3c(=O)ccc4cnc5ccc(-c6cnc7ccccc7c6)cc5c43)cc2C(F)(F)F)CC1 [Torin1] + C#Cc1cccc(Nc2ncnc3cc(OCCOC)c(OCCOC)cc23)c1 [Erlotinib] | 0 | 3.86 | 15.2 | 14 | 18.2 | 11.1 | 20.5 | 35.3 | 11.5 | 0.754 | 0.917 | 0.819 | 0.678 | 0.61 | 0.249 | 0.744 | 0.279 | 0.58 | 0 | 1.13 | 0.392 | 0.68 | 15.6 | 4.09 | 2.65 | 25.4 | 0.359 | 0 | 3.69 | 10.5 | 9.6 | 10.2 | 11 | 13.7 | 32.9 | 6.1
C[C@@H](Oc1cc(-c2cnn(C3CCNCC3)c2)cnc1N)c1c(Cl)ccc(F)c1Cl [Crizotinib] + CCOc1nc(NC(=O)Cc2cc(OC)ccc2OC)cc(N)c1C#N [JNK inhibitor VIII] | 1.09 | 5.67 | 6.62 | 13.6 | 10.4 | 2.65 | 9.81 | 6.52 | 0 | 1.13 | 0.929 | 0.637 | 0.458 | 0.972 | 0.945 | 0.732 | 0.838 | 2.67 | 0 | 1.72 | 2.4 | 5.02 | 0 | 0.922 | 5.36 | 4.44 | 0 | 0.954 | 2.75 | 1.66 | 2.32 | 4.28 | 2.42 | 4.11 | 6.52 | 0
C=CCc1cccc(/C=N/NC(=O)CN2CCN(Cc3ccccc3)CC2)c1O [PAC-1] + Cc1cc([C@@H](C)Nc2ccccc2C(=O)O)c2nc(N3CCOCC3)cc(=O)n2c1 [AZD6482] | 10.7 | 2.36 | 4.9 | 0.0112 | 21.4 | 11.9 | 4.06 | 1.75 | 2.96 | 0.845 | 0.882 | 0.979 | 1.01 | 0.976 | 0.865 | 0.962 | 0.847 | 0.635 | 8.49 | 2.36 | 0.355 | 0 | 10.9 | 5.94 | 0.918 | 1.75 | 2.96 | 10.2 | 2.36 | 0.594 | 0.0112 | 14.6 | 10.2 | 1.77 | 1.75 | 2.96
